Reference: ChEMBL document CHEMBL1153006, “Synthesis, NMR characterization and in vitro antitumor evaluation of new aminophosphonic acid diesters” (Eur J Med Chem, 2009)

Experiments:
Format in all cases: functional, cell-based
[1] = system: LAMA-84; experiment: Cytotoxicity against human LAMA-84 cells after 72 hrs by MTT assay; details: LAMA-84, 72 h
[2] = system: HL-60; experiment: Cytotoxicity against human HL60 cells after 72 hrs by MTT assay; details: HL-60, 72 h
[3] = system: K562; experiment: Cytotoxicity against human K562 cells after 72 hrs by MTT assay; details: K562, 72 h
[4] = system: HL-60; experiment: Cytotoxicity against multidrug-resistant human HL60 cells overexpressing in MRP-1 after 72 hrs by MTT assay; details: HL-60, 72 h

| SMILES | IC50 [1] [µM] | IC50 [2] [µM] | IC50 [3] [µM] | IC50 [4] [µM] |
| --- | --- | --- | --- | --- |
| Cc1ccc(/N=C\c2ccc(N(C)C)cc2)cc1 | 252 | > 400 | 213 | 226 |
| CCOP(=O)(OCC)C(NCCCN(C)C)c1ccco1 (stereo unspecified) | > 400 | 163 | 353 | 190 |
| CCOP(=O)(OCC)C(Nc1ccc(C)cc1)c1ccc(N(C)C)cc1 (stereo unspecified) | 119 | > 400 | 42.4 | 107 |
| Cc1ccc(/N=C\c2ccco2)cc1 [N-FURFURYLIDENE-P-TOLUIDINE] | 39.9 | > 400 | 29.9 | 68.6 |
